Reference: paper PMC10822893, “Selective herbicide safening in dicot plants: a case study in Arabidopsis” (Frontiers in Plant Science, 2024)

Assays:
[1] = biological target: T1, AtGSTU19 (Arabidopsis thaliana, UniProt Q9ZRW8); assay: UPLC-qTOF MS initial velocities, Michaelis-Menten non-linear regression; format: biochemical; settings: co-substrate glutathione; unit printed as µmol (amount, not concentration)
T1 construct: gene GSTU19
From the text: UPLC-qTOF MS initial velocities, Michaelis-Menten non-linear regression on AtGSTU19

[2] = biological target: T2, AtGSTU7 (Arabidopsis thaliana, UniProt Q9ZW24); assay: as above; format: biochemical; settings: co-substrate glutathione; unit printed as µmol (amount, not concentration)
T2 construct: gene GSTU7
T2 sequence (Q9ZW24 1-227): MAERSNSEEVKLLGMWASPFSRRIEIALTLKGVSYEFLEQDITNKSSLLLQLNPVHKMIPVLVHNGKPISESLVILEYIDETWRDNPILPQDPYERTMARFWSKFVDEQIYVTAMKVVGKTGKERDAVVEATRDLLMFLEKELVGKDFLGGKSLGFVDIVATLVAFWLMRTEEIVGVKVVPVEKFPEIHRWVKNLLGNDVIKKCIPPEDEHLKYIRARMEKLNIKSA
From the text: UPLC-qTOF MS initial velocities, Michaelis-Menten non-linear regression on AtGSTU7

T1 sequence (Q9ZRW8 whole entry): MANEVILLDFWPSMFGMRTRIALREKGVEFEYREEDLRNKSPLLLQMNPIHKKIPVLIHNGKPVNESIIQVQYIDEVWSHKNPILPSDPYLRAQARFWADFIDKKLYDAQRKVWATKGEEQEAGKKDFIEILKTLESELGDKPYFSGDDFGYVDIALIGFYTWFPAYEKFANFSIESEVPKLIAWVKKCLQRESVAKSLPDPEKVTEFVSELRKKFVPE

In the case of `CC(C)N(C(=O)COc1nnc(C(F)(F)F)s1)c1ccc(F)cc1` [flufenacet], the “Km” value [1] is reported as 95.08 µmol and the “Km” value [2] is reported as 109.57 µmol.
